Among the data in patent US20250171417A1, “HETEROCYCLIC DERIVATIVE, AND COMPOSITION AND PHARMACEUTICAL USE THEREOF” (Xizang Haisco Pharmaceutical Co., Ltd., priority 2021, published 2025) are IC50 values, retold here.

Like-named read-outs stand apart in the source and are kept apart here.

For this assay, the system named is Prostate cancer cells 22RV1. Kind of assay: Experiment on inhibiting 22RV1 cell proliferation (CellTiter-Glo, 7 days). The format is cell-based. As to conditions: Homo sapiens, 168 h, 22RV1 cells, 7 days incubation, read-out: IC50 values for inhibition of 22RVI cells. As for the experimental part:
Prostate cancer cells 22RV1 were purchased from ATCC, the cell medium was RPMI 1640+10% FBS, and the cells were cultured in an incubator at 37° C. under 5% CO2. On day 1, the cells in the exponential growth phase were collected. With a 1% css-FBS phenol red-free medium, the cell suspension was adjusted to a corresponding concentration, plated at 2000 cells/well and incubated overnight. On day 2, compounds at different concentrations were added, and the plate was placed in the incubator and incubated for further 7 days. After the incubation was completed, according to operation instructions for a CellTiter-Glo kit (Promega, G7573), 50 μL of CellTiter-Glo reagents, which were already pre-melted and equilibrated to room temperature, were added to each well, and the mixtures were uniformly mixed for 2 min using a microplate shaker. The plate was placed at room temperature for 10 min. and then […] signal values were measured using a microplate reader (PHERAstar FSX). The results were processed according to formula (I), the inhibition rate of the compound at different concentrations was calculated, and the IC50 value of the compound with an inhibition rate of 50% was calculated using origin9.2 software with DoseResp function, wherein RLUcompound was the readout of the treated group, and RLUcontrol was the average value of the DMSO vehicle control group.
In general terms: Cellular ATP, detected with luciferase, serves as a proxy for viable cell number.

The mark [1] stands for this setting: cells without a unit of their own (μM).
The mark [2] stands for this setting: cells with nM printed beside the value.

The IC50 is the midpoint of a concentration-inhibition curve. With `CC(C)(C(=O)Nc1cc(Cl)c(C(F)(F)F)c(Cl)c1)n1cc(C#CC2CN(c3ccc4c(c3)C(=O)N(C3CCC(=O)NC3=O)C4=O)C2)cn1` (stereo not drawn) [Compound 22, N-(3,5-dichloro-4-(trifluoromethyl)phenyl)-2-(4-((1-(2-(2,6-dioxopiperidin-3-yl)-1,3-dioxoisoindolin-5-yl)azetidin-3-yl)ethynyl)-1H-pyrazol-1-yl)-2-methylpropanamide], the IC50 under setting [1] is below 1 µM. As for `[2H]C1([2H])C([2H])([2H])C(C(=O)Nc2ccc(C(F)(F)F)cc2Cl)(n2cc(C#CC3CN(c4ccc5c(c4)C(=O)N(C4CCC(=O)NC4=O)C5=O)C3)cn2)C1([2H])[2H]` (stereo not drawn) [Compound 113, N-(2-chloro-4-(trifluoromethyl)phenyl)-1-(4-((1-(2-(2,6-dioxopiperidin-3-yl)-1,3-dioxoisoindolin-5-yl)azetidin-3-yl)ethynyl)-1H-pyrazol-1-yl)cyclobutane-2,2,3,3,4,4-d6-1-carboxamide], the IC50 under setting [2] was below 0.05 µM.

With `O=C1CCC(N2C(=O)c3ccc(N4CC(F)(C#Cc5cnn(C6(C(=O)Nc7ccc(C(F)(F)F)cc7Cl)CCC6)c5)C4)cc3C2=O)C(=O)N1` (stereo not drawn) [Compound 71], the IC50 under setting [2] is below 0.05 µM. `O=C1CCC(N2C(=O)c3ccc(N4CC(C#Cc5cn(C6(C(=O)Nc7ccc(C(F)(F)F)cc7Cl)CCC6)cn5)C4)cc3C2=O)C(=O)N1` (stereo not drawn) [Trifluoroacetate of compound 139, N-(2-chloro-4-(trifluoromethyl)phenyl)-1-(4-((1-(2-(2,6-dioxopiperidin-3-yl)-1,3-dioxoisoindolin-5-yl)azetidin-3-yl)ethynyl)-1H-imidazol-1-yl)cyclobutane-1-carboxamide]: under setting [1], the IC50 is below 1 µM.

On to `Cc1cc(NC(=O)C(C)(C)n2cc(C#CC3CN(c4ccc5c(c4)C(=O)N(C4CCC(=O)NC4=O)C5=O)C3)cn2)ccc1Cl` (stereo not drawn) [Compound 16, N-(4-chloro-3-methylphenyl)-2-(4-((1-(2-(2,6-dioxopiperidin-3-yl)-1,3-dioxoisoindolin-5-yl)azetidin-3-yl)ethynyl)-1H-pyrazol-1-yl)-2-methylpropanamide], for which the IC50 under setting [1] is below 1 µM.

Consider `O=C1CCC(N2C(=O)c3ccc(N4CC(C#Cc5cnn(C6(C(=O)Nc7ccc(C(F)(F)F)cc7C7CC7)CCC6)c5)C4)cc3C2=O)C(=O)N1` (stereo not drawn) [Compound 35, N-(2-cyclopropyl-4-(trifluoromethyl)phenyl)-1-(4-((1-(2-(2,6-dioxopiperidin-3-yl)-1,3-dioxoisoindolin-5-yl)azetidin-3-yl)ethynyl)-1H-pyrazol-1-yl)cyclobutane-1-carboxamide], for which, under setting [2], the IC50 was below 0.05 µM. On the same count and under the same terms, with `O=C1CCC(N2C(=O)c3ccc(N4CC(C#Cc5cnn(C6(C(=O)Nc7ccc(C(F)(F)F)cc7Cl)CC6)c5)C4)cc3C2=O)C(=O)N1` (stereo not drawn) [Compound 72, N-(2-chloro-4-(trifluoromethyl)phenyl)-1-(4-((1-(2-(2,6-dioxopiperidin-3-yl)-1,3-dioxoisoindolin-5-yl)azetidin-3-yl)ethynyl)-1H-pyrazol-1-yl)cyclopropane-1-carboxamide] the figure was below 0.05 µM.

For the compound `N#Cc1ccc(NC(=O)C2(n3cc(C#CC4CN(c5ccc6c(c5)C(=O)N(C5CCC(=O)NC5=O)C6=O)C4)cn3)CCC2)cc1C1CC1` (stereo not drawn) [Compound 40, N-(4-cyano-3-cyclopropylphenyl)-1-(4-((1-(2-(2,6-dioxopiperidin-3-yl)-1,3-dioxoisoindolin-5-yl)azetidin-3-yl)ethynyl)-1H-pyrazol-1-yl)cyclobutane-1-carboxamide], the IC50 under setting [2] was below 0.1 µM. The same measure, in the same setting: with `Cc1nn(C(C)(C)C(=O)Nc2ccc(C#N)cc2C2CC2)cc1C#CC1CN(c2ccc3c(c2)C(=O)N(C2CCC(=O)NC2=O)C3=O)C1` (stereo not drawn) [Compound 184, N-(4-cyano-2-cyclopropylphenyl)-2-(4-((1-(2-(2,6-dioxopiperidin-3-yl)-1,3-dioxoisoindolin-5-yl)azetidin-3-yl)ethynyl)-3-methyl-1H-pyrazol-1-yl)-2-methylpropanamide] the figure was below 0.1 µM.
